Data as given in ChEMBL document CHEMBL5352388 (Eur J Med Chem, 2022).
pIC50: −log10 of the molar value.

These molecules were tested against Lysine-specific histone demethylase 1A (Homo sapiens, UniProt O60341).
Description: Inhibition of recombinant human LSD1 using fluorometric substrate by HRP based fluorimeter microplate reader assay

| SMILES | pIC50 |
| --- | --- |
| Cc1ccc(-c2cc3[nH]cc(C(=O)N4CCC[C@@H](N)C4)c3cc2-c2ccc(C#N)cc2)cc1 | 6.47 |
| N#Cc1ccc(-c2cc3c(C(=O)N4CCC(N)CC4)c[nH]c3cc2-c2cncnc2)cc1 | 6.02 |
| Cc1ccc(-c2cc3[nH]cc(C(=O)NC4CCCNC4)c3cc2-c2ccc(C#N)cc2)cc1 (configuration not stated) | 6.40 |
| Cc1ccc(-c2cc3c(cc2-c2ccc(C(N)=O)cc2)c(C(=O)NC2CCNCC2)cn3C)cc1 | 4.70 |
| Cc1ccc(-c2cc3[nH]cc(C(=O)N[C@H]4CC[C@H](N)CC4)c3cc2-c2ccc(C#N)cc2)cc1 | 6.19 |
| Cc1ccc(-c2cc3c(cc2-c2ccc(C#N)cc2)c(C(=O)N2CCC(N)CC2)cn3Cc2ccc(Br)cc2)cc1 | 6.00 |
| Cc1ccc(-c2cc3[nH]cc(C(=O)NC4CCNC4)c3cc2-c2ccc(C(N)=O)cc2)cc1 (configuration not stated) | 4.62 |
| Cc1ccc(CS(=O)(=O)n2cc(C(=O)N3CCC(N)CC3)c3cc(-c4ccc(C#N)cc4)c(-c4ccc(C)cc4)cc32)cc1 | 5.76 |
| Cc1ccc(-c2cc3[nH]cc(C(=O)N4CCC(N)CC4)c3cc2-c2ccc(O)cc2)cc1 | 5.30 |
| Cc1ccc(-c2cc3[nH]cc(C(=O)N4CCC(N)CC4)c3cc2-c2ccc(S(N)(=O)=O)cc2)cc1 | 4.64 |
| COc1ccc(-c2cc3[nH]cc(C(=O)N4CCC(N)CC4)c3cc2-c2ccc(C#N)cc2)c(F)c1 | 6.68 |
| Cc1ccc(Cn2cc(C(=O)N3CCC(N)CC3)c3cc(-c4ccc(C#N)cc4)c(-c4ccc(C)cc4)cc32)cc1 | 6.07 |
| Cc1ccc(-c2cc3[nH]cc(C(=O)N4CCC(N)CC4)c3cc2-c2ccc(C#N)cc2C)cc1 | 6.22 |
| Cc1ccc(-c2cc3[nH]cc(C(=O)NC4CCNC4)c3cc2-c2ccc(C#N)cc2)cc1 (configuration not stated) | 6.43 |
| N#Cc1ccc(-c2cc3c(C(=O)N4CCC(N)CC4)c[nH]c3cc2-c2ccc(C(F)(F)F)cc2)cc1 | 6.05 |
| Cc1ccc(-c2cc3[nH]cc(C(=O)NC4CCNCC4)c3cc2-c2ccc(C#N)cc2)cc1 | 6.47 |
| N#Cc1ccc(-c2cc3c(C(=O)N4CCC(N)CC4)c[nH]c3cc2-c2ccoc2)cc1 | 6.01 |
| Cc1ccc(-c2cc3c(cc2-c2ccc(C#N)cc2)c(C(=O)N2CCC(N)CC2)cn3Cc2ccc(Cl)cc2)cc1 | 6.16 |
| Cc1ccc(-c2cc3[nH]cc(C(=O)N4CCC(N)CC4)c3cc2-c2ccc([N+](=O)[O-])cc2)cc1 | 4.70 |
| Cc1ccc(-c2cc3[nH]cc(C(=O)N4CCC(N)CC4)c3cc2-c2ccc(C(N)=O)cc2)cc1 | 4.66 |
| Cc1ccc(-c2cc3c(cc2-c2ccc(C#N)cc2)c(C(=O)N2CCC(N)CC2)cn3Cc2cccc(Br)c2)cc1 | 6.26 |

Other lines, results leading:

| pIC50 | SMILES |
| --- | --- |
| 6.96 | Cc1ccc(-c2cc3c(cc2-c2ccc(C#N)cc2)c(C(=O)N2CCC(N)CC2)cn3S(=O)(=O)c2ccc(C#N)cc2)cc1 |
| 6.68 | Cc1ccc(-c2cc3[nH]cc(C(=O)NCC4CCNC4)c3cc2-c2ccc(C#N)cc2)cc1 (configuration not stated) |
| 6.94 | Cc1ccc(-c2cc3[nH]cc(C(=O)N4CCC(N)CC4)c3cc2-c2ccc(C#N)nc2)cc1 |
| 7.82 | Cc1ccc(-c2cc3c(cc2-c2ccc(C#N)cc2)c(C(=O)N2CCC(N)CC2)cn3C(C)C)cc1 |
| 6.82 | Cc1ccc(-c2cc3[nH]cc(C(=O)NCCCN)c3cc2-c2ccc(C#N)cc2)cc1 |
| 6.78 | CC(=O)Nc1ccc(S(=O)(=O)n2cc(C(=O)N3CCC(N)CC3)c3cc(-c4ccc(C#N)cc4)c(-c4ccc(C)cc4)cc32)cc1 |
| 7.55 | CCn1cc(C(=O)N2CCC(N)CC2)c2cc(-c3ccc(C#N)cc3)c(-c3ccc(C)cc3)cc21 |
| 6.93 | Cc1ccc(-c2cc3[nH]cc(C(=O)N4CCC(N)CC4)c3cc2-c2ccc(C#N)cc2)c(C)c1 |
| 6.87 | Cc1ccc(-c2cc3[nH]cc(C(=O)N4CCC(CN)CC4)c3cc2-c2ccc(C#N)cc2)cc1 |
| 6.74 | Cc1ccc(-c2cc3[nH]cc(C(=O)NCCN)c3cc2-c2ccc(C#N)cc2)cc1 |
| 7.74 | Cc1ccc(-c2cc3c(cc2-c2ccc(C#N)cc2)c(C(=O)N2CCC(N)CC2)cn3C2CC2)cc1 |
